# Assay results taken from US8962846B2, “Melanocortin receptor antagonist compounds, process for preparing them and use thereof in human medicine and cosmetics” (Galderma Research & Development, priority 2008, dated 2015).
# Columns and labels:
# [1] = target: T1, hMC4-R (Homo sapiens, UniProt P32245); test: Transactivation test: melanocortin receptors (CRE-Luc luciferase), hMC4-R; format: cell-based; conditions: HEK293 transfected with pCRE-Luc and receptor; 10-point dose response from 10 μM; antagonist behaviour tested in presence of 1 nM NDP-MSH; 6 hours incubation
# T1 construct: expressed in transfected cells; host or cells: HEK293
# T1 sequence (P32245 whole entry): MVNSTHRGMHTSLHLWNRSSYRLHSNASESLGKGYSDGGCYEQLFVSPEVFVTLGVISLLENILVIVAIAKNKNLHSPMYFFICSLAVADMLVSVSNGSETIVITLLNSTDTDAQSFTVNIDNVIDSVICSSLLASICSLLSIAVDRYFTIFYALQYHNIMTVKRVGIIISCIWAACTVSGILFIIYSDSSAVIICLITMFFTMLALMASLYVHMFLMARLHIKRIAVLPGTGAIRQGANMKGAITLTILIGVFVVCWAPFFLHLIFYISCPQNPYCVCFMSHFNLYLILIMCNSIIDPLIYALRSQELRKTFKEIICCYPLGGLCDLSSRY
# Procedure: (§1) The lines HEK293 are transfected with vectors pCRE-Luc and hMCl1R or hMCl4R. The cells are cultured at 37° C. and 5% CO2, in DMEM medium supplemented with 10% foetal calf serum.
# (§2) In the presence of an activator (agonist), the melanocortin receptor will activate the cAMP pathway, which, via the vector CRE-Luc, will lead to the synthesis of luciferase. After addition of a lysis buffer containing a luminescent luciferase substrate, the luminescence proportional to the degree of activation or inhibition of receptor may be measured.
# (§3) The products are dissolved at 10 mM in DMSO. They are tested as a response dose at 0.1% of DMSO final. The range comprising 10 points and a zero starts at 10 μM with four-fold dilutions. To test agonists, the products are tested alone. To determine the antagonist behaviour, the products of interest are tested in the presence of 1 nM NDP-MSH (reference agonist). The cells are inoculated at a rate of 5000 cells per well (384-well plate) in serum-free DMEM medium and incubated overnight at 37° C. and 5% CO2.
# (§4) The products and the reference ligand (NDP-MSH) are added the following day and the plates are reincubated for 6 hours at 37° C. and 5% CO2. After adding the lysis buffer containing luciferin, the plates are read in a Top-Count machine. The results are normalized as percentage of activity using the 100% (cells+NDP-MSH at 10 nM) and 0% (cells alone) controls. An EC50 is calculated for each product using the XLFit software.
# [2] = target: T2, hMC1-R (Homo sapiens, UniProt Q01726); test: Transactivation test: melanocortin receptors (CRE-Luc luciferase), hMC1-R; format: cell-based; conditions: HEK293 transfected with pCRE-Luc and receptor; 10-point dose response from 10 μM; antagonist behaviour tested in presence of 1 nM NDP-MSH; 6 hours incubation
# T2 construct: expressed in transfected cells; host or cells: HEK293
# T2 sequence (Q01726 whole entry): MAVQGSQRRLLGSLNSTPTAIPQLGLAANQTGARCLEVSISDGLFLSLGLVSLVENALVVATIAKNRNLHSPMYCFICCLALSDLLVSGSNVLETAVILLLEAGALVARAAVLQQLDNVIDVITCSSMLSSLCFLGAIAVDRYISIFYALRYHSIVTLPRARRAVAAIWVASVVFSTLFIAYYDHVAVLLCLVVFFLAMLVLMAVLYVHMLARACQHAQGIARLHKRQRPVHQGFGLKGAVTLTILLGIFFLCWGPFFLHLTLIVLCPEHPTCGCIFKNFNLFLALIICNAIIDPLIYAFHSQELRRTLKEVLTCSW
# Procedure: as §1, §2, §3, §4
SMILES,EC50 [1] [nM],EC50 [2] [nM]
"CCCC(=O)C1(C2CCCCC2)CCN(C(=O)[C@@H](Cc2ccc(OC)cc2)NC(=O)NCCc2c[nH]nn2)CC1 [Example 3, 1-[(R)-2-(4-Butyryl-4-cyclohexylpiperidin-1-yl)-1-(4-methoxybenzyl)-2-oxoethyl]-3-[2-(1H-[1,2,3]triazol-4-yl)ethyl]urea]",50,–
"CCOC(=O)C1(C2CCCCC2)CCN(C(=O)[C@@H](Cc2ccc(OC)cc2)NC(=S)NCCCc2c[nH]cn2)CC1 [Example 7, Ethyl 4-cyclohexyl-1-[(R)-2-{3-[3-(1H-imidazol-4-yl)propyl]-thioureido}-3-(4-methoxyphenyl)propionyl]piperidine-4-carboxylate]",50,1000
"CCOC(=O)C1(C2CCCCC2)CCN(C(=O)[C@@H](Cc2ccc(OC)cc2)NC(=O)NCCCc2cnc[nH]2)CC1 [Example 4, Ethyl 4-cyclohexyl-1-[(R)-2-{3-[3-(3H-imidazol-4-yl)propyl]-ureido}-3-(4-methoxyphenyl)propionyl]piperidine-4-carboxylate]",20,500
"COc1ccc(CC(NC(=O)NCCc2c[nH]cn2)C(=O)N2CCC(C(=O)NC(C)(C)C)(C3CCCCC3)CC2)cc1 (centres unmarked) [Example 1, 4-Cyclohexyl-1-[2-{3-[2-(1H-imidazol-4-yl)ethyl]ureido}-3-(4-methoxyphenyl)propionyl]piperidine-4-tert-butylcarbamoyl]",60,–
"CCOC(=O)C1(C2CCCCC2)CCN(C(=O)[C@@H](Cc2ccc(OC)cc2)NC(=S)NCCc2cn(C)cn2)CC1 [Example 8, Ethyl 4-cyclohexyl-1-((R)-3-(4-methoxyphenyl)-2-{3-[2-(1-methyl-1H-imidazol-4-yl)ethyl]thioureido}propionyl)piperidine-4-carboxylate]",50,1000
"CCCC(=O)C1(C2CCCCC2)CCN(C(=O)[C@@H](Cc2ccc(OC)cc2)NC(=O)NCCc2cn(C)cn2)CC1 [Example 2, 1-[(R)-2-(4-Butyryl-4-cyclohexylpiperidin-1-yl)-1-(4-methoxybenzyl)-2-oxoethyl]-3-[2-(1-methyl-1H-imidazol-4-yl)ethyl]urea]",50,1000

# Molecules with a lower EC50 [1], results first:
EC50 [1] [nM],EC50 [2] [nM],SMILES
15,–,"CCOC(=O)C1(C2CCCCC2)CCN(C(=O)[C@@H](Cc2ccc(Cl)c(Cl)c2)NC(=O)NCCc2c[nH]cn2)CC1 [Example 5, Ethyl 4-cyclohexyl-1-((R)-3-(3,4-dichlorophenyl)-2-{3-[2-(1H-imidazol-4-yl)ethyl]ureido}propionyl)piperidine-4-carboxylate]"
10,–,"CCOC(=O)C1(C2CCCCC2)CCN(C(=O)[C@@H](Cc2ccc(Cl)c(Cl)c2)NC(=O)NCCc2cncn2C)CC1 [Example 6, Ethyl 4-cyclohexyl-1-((R)-3-(3,4-dichlorophenyl)-2-{3-[2-(3-methyl-3H-imidazol-4-yl)ethyl]ureido}propionyl)piperidine-4-carboxylate]"
2,1000,"CCOC(=O)C1(C2CCCCC2)CCN(C(=O)[C@@H](Cc2ccc(Cl)cc2Cl)NC(=O)NCCc2c[nH]cn2)CC1 [Example 9, Ethyl 4-cyclohexyl-1-((R)-3-(2,4-dichlorophenyl)-2-{3-[2-(1H-imidazol-4-yl)ethy]ureido}propionyl)piperidine-4-carboxylate]"
